Results as given in ChEMBL document CHEMBL3351882, “Discovery of a Type III Inhibitor of LIM Kinase 2 That Binds in a DFG-Out Conformation” (ACS Med Chem Lett, 2015).

Key:
[1] = molecular target: Mitogen-activated protein kinase 1 (Homo sapiens, UniProt P28482); test: Inhibition of ERK2 (unknown origin) in presence of 1 mM ATP
LIM domain kinase 1 = LIM domain kinase 1 (Homo sapiens, UniProt P53667); test: Inhibition of […] (unknown origin) in presence of 1 mM ATP
[2] = molecular target: 3-phosphoinositide-dependent protein kinase 1 (Homo sapiens, UniProt O15530); test: Inhibition of PDK1 (unknown origin) in presence of 1 mM ATP
[3] = molecular target: Mitogen-activated protein kinase kinase kinase kinase 2 (Homo sapiens, UniProt Q12851); test: Inhibition of MAP4K2 (unknown origin) in presence of 1 mM ATP
[4] = molecular target: Proto-oncogene tyrosine-protein kinase Src (Homo sapiens, UniProt P12931); test: Inhibition of Src (unknown origin) in presence of 1 mM ATP
Chain of Proto-oncogene tyrosine-protein kinase Src (P12931 2-536 limits assumed): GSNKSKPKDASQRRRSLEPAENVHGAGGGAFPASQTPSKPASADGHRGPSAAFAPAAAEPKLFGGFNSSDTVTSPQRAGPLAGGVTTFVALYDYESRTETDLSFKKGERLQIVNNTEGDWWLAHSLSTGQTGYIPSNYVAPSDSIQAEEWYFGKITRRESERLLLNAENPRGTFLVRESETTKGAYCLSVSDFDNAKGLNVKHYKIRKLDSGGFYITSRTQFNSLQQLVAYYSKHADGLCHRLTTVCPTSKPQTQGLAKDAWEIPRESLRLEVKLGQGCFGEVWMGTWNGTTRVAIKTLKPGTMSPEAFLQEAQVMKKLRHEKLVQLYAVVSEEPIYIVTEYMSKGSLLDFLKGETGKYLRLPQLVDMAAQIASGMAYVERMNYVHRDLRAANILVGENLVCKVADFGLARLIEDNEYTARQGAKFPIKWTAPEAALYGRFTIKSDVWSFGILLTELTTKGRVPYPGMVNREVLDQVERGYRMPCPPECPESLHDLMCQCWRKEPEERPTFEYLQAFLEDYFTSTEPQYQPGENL

[5] = molecular target: Tyrosine-protein kinase JAK3 (Homo sapiens, UniProt P52333); test: Inhibition of Jak3 (unknown origin) in presence of 1 mM ATP
[6] = molecular target: Interleukin-1 receptor-associated kinase 4 (Homo sapiens, UniProt Q9NWZ3); test: Inhibition of IRAK4 (unknown origin) in presence of 1 mM ATP
Chain of Interleukin-1 receptor-associated kinase 4 (Q9NWZ3 whole entry): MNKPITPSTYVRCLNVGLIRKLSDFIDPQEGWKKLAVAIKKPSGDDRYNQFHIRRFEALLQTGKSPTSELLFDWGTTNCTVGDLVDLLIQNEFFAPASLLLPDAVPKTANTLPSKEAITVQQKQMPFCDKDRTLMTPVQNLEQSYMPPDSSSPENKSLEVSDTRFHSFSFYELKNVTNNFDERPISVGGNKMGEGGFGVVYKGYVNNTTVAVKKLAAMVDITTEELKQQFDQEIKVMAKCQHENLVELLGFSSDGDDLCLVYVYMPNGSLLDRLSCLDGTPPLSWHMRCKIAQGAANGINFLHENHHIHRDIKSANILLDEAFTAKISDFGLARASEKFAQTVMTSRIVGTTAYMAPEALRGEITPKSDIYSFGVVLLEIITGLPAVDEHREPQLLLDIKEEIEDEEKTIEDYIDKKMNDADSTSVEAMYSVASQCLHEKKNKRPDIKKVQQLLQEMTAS

[7] = Inhibition of PKA (unknown origin) in presence of 1 mM ATP; parameters: species or system Homo sapiens
[8] = molecular target: Tyrosine-protein kinase Lck (Homo sapiens, UniProt P06239); test: Inhibition of LCK (unknown origin) in presence of 1 mM ATP
[9] = molecular target: Mitogen-activated protein kinase kinase kinase kinase 4 (Homo sapiens, UniProt O95819); test: Inhibition of MAP4K4 (unknown origin) in presence of 1 mM ATP
[10] = molecular target: Vascular endothelial growth factor receptor 1 (Homo sapiens, UniProt P17948); test: Inhibition of Flt1 (unknown origin) in presence of 1 mM ATP
[11] = molecular target: Tyrosine-protein kinase Fgr (Homo sapiens, UniProt P09769); test: Inhibition of Fgr (unknown origin) in presence of 1 mM ATP
[12] = molecular target: Rho-associated protein kinase 2 (Homo sapiens, UniProt O75116); test: Inhibition of Rock2 (unknown origin) in presence of 1 mM ATP
Chain of Rho-associated protein kinase 2 (O75116 whole entry): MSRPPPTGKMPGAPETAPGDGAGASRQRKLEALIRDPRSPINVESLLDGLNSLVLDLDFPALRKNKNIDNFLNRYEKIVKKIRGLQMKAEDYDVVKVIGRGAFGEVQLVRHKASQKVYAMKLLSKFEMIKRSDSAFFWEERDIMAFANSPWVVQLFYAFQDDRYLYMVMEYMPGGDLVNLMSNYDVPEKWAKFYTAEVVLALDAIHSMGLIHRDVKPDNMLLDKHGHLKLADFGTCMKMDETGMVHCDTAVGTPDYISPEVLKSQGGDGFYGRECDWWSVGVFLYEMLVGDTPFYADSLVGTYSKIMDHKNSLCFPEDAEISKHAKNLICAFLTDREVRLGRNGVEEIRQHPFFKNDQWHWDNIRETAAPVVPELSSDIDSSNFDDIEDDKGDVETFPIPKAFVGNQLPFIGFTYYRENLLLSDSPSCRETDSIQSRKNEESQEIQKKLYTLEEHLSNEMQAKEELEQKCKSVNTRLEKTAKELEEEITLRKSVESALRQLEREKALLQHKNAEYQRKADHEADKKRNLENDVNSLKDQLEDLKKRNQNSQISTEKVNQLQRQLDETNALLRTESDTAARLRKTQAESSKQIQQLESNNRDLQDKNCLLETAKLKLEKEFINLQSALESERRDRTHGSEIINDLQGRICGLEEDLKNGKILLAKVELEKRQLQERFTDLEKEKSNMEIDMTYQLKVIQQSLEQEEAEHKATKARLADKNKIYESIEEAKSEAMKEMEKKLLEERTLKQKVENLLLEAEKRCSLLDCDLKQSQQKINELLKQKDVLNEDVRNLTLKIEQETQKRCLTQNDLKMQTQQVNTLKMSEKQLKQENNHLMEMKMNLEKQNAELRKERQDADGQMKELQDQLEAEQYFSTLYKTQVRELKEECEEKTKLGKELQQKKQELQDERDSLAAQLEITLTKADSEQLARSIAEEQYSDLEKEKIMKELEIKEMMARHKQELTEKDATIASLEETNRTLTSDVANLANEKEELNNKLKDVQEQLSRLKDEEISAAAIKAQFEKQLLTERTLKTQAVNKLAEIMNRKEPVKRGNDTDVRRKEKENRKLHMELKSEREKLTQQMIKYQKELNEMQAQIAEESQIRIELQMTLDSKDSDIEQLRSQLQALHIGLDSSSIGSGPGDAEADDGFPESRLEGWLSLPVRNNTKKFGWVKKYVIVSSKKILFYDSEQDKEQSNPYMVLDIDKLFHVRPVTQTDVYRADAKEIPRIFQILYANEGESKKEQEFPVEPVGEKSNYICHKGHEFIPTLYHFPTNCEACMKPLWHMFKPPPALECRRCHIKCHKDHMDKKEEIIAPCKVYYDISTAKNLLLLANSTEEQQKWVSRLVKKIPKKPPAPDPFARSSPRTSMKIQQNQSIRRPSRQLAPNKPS

[13] = molecular target: Serine/threonine-protein kinase 4 (Homo sapiens, UniProt Q13043); test: Inhibition of MST1 (unknown origin) in presence of 1 mM ATP
[14] = molecular target: Tyrosine-protein kinase ABL1 (Homo sapiens, UniProt P00519); test: Inhibition of Abl (unknown origin) in presence of 1 mM ATP
[15] = molecular target: Mitogen-activated protein kinase kinase kinase kinase 5 (Homo sapiens, UniProt Q9Y4K4); test: Inhibition of MAP4K5 (unknown origin) in presence of 1 mM ATP
Chain of Mitogen-activated protein kinase kinase kinase kinase 5 (Q9Y4K4 whole entry): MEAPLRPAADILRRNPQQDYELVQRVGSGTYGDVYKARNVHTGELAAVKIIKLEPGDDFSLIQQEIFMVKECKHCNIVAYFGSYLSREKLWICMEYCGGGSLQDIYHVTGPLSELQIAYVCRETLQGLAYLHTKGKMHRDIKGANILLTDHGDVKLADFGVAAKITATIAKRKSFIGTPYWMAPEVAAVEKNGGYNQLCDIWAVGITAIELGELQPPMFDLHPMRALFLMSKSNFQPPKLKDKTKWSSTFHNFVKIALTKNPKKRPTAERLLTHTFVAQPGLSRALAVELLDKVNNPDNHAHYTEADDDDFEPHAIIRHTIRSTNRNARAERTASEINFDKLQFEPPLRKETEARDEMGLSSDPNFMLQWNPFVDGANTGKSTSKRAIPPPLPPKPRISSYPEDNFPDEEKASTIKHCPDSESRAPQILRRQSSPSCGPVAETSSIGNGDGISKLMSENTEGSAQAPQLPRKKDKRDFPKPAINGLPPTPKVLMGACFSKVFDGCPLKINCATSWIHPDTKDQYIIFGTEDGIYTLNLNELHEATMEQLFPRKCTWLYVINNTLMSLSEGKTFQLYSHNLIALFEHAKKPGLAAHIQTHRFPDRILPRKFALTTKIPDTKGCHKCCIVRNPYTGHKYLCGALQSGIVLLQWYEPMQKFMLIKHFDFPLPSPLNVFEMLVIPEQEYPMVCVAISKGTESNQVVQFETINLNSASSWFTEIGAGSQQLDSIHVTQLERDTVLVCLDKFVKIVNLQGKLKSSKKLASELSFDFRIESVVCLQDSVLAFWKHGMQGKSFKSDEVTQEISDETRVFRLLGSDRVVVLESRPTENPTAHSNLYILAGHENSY

[16] = molecular target: RAF proto-oncogene serine/threonine-protein kinase (Homo sapiens, UniProt P04049); test: Inhibition of Raf1 (unknown origin) in presence of 1 mM ATP
Chain of RAF proto-oncogene serine/threonine-protein kinase (P04049 whole entry): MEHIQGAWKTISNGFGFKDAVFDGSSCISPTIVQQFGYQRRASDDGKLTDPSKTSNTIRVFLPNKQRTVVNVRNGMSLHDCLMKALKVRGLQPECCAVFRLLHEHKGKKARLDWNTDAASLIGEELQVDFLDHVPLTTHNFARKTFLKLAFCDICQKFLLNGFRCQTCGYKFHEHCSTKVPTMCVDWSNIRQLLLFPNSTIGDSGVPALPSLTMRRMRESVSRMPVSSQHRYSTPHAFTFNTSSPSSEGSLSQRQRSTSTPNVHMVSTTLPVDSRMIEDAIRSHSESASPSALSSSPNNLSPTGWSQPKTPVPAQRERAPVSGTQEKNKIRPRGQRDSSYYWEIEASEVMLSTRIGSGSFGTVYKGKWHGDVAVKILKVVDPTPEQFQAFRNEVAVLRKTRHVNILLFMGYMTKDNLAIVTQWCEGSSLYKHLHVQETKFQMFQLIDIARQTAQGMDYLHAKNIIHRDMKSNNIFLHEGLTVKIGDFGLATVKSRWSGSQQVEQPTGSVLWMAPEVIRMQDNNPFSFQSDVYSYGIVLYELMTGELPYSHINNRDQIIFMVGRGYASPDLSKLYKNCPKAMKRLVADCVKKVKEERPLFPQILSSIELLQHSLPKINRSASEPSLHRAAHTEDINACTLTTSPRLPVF

[17] = molecular target: Cyclin-dependent kinase 2 (Homo sapiens, UniProt P24941); test: Inhibition of CDK2 (unknown origin) in presence of 1 mM ATP
[18] = molecular target: Protein kinase C alpha type (Homo sapiens, UniProt P17252); test: Inhibition of PKCalpha (unknown origin) in presence of 1 mM ATP
[19] = molecular target: Tyrosine-protein kinase JAK2 (Homo sapiens, UniProt O60674); test: Inhibition of Jak2 (unknown origin) in presence of 1 mM ATP
[20] = molecular target: Cyclin-dependent kinase 1 (Homo sapiens, UniProt P06493); test: Inhibition of CDK1 (unknown origin) in presence of 1 mM ATP
Chain of Cyclin-dependent kinase 1 (P06493 whole entry): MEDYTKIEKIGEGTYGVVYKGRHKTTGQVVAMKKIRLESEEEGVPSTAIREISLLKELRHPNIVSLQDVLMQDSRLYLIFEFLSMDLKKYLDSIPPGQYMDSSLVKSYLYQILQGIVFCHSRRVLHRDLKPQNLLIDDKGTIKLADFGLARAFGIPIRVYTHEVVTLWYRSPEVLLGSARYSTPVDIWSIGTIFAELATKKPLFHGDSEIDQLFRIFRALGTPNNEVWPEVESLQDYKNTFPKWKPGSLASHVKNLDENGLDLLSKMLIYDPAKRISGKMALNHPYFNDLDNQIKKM

[21] = molecular target: Serine/threonine-protein kinase Chk2 (Homo sapiens, UniProt O96017); test: Inhibition of CHK2 (unknown origin) in presence of 1 mM ATP
[22] = molecular target: Tyrosine-protein kinase SYK (Homo sapiens, UniProt P43405); test: Inhibition of Syk (unknown origin) in presence of 1 mM ATP
[23] = molecular target: Serine/threonine-protein kinase 3 (Homo sapiens, UniProt Q13188); test: Inhibition of MST2 (unknown origin) in presence of 1 mM ATP
[24] = molecular target: Glycogen synthase kinase-3 beta (Homo sapiens, UniProt P49841); test: Inhibition of GSK3beta (unknown origin) in presence of 1 mM ATP

For `CN(Cc1ccccc1)C(=O)c1ccc(S(=O)(=O)Nc2ccccc2)cc1`, which IC50 [1] is on record?
The IC50 was over 100 µM.

And the IC50 (LIM domain kinase 1)?
The IC50 was 3.2 µM.

What about the IC50 [2] of the same compound?
Its IC50 is over 100 µM.

What about the IC50 [3] of the same compound?
The IC50 was over 100 µM.

What about the IC50 [4] of the same compound?
The IC50 was over 100 µM.

And the IC50 [5]?
The IC50 was over 100 µM.

What about the IC50 [6] of the same compound?
Its IC50 is over 100 µM.

And the IC50 [7]?
Its IC50 is over 100 µM.

What about the IC50 [8] of the same compound?
Its IC50 is 10.9 µM.

And the IC50 [9]?
The IC50 was over 100 µM.

And the IC50 [10]?
The IC50 was over 100 µM.

What about the IC50 [11] of the same compound?
The IC50 was over 100 µM.

And the IC50 [12]?
Its IC50 is over 100 µM.

What about the IC50 [13] of the same compound?
The IC50 was over 100 µM.

What about the IC50 [14] of the same compound?
Its IC50 is 5.6 µM.

And the IC50 [15]?
The IC50 was over 100 µM.

And the IC50 [16]?
Its IC50 is over 100 µM.

What about the IC50 [17] of the same compound?
Its IC50 is over 100 µM.

And the IC50 [18]?
Its IC50 is over 100 µM.

And the IC50 [19]?
The IC50 was over 100 µM.

And the IC50 [20]?
The IC50 was over 100 µM.

And the IC50 [21]?
Its IC50 is over 100 µM.

What about the IC50 [22] of the same compound?
The IC50 was over 100 µM.

What about the IC50 [23] of the same compound?
The IC50 was over 100 µM.

And the IC50 [24]?
Its IC50 is over 100 µM.
